The supplement of paper PMC12532568

System: Danio rerio larvae Tg(actc1b:ZsGreen-LC3), 3 dpf
Test: LC3 puncta relative area vs vehicle (mean) (log2 fold change); higher = more autophagy
Conditions: treatment time 16 h
Protocol: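 Transgenic ZsGreen-LC3 zebrafish larvae (2 dpf) were treated for 16 h with natural bioactives at 10, 50, 100 or 250 µM. Skeletal-muscle LC3 puncta area was measured by high-content imaging with or without 4 h of 100 mM NH4Cl, normalised to vehicle, and reported as the mean log2 fold change over 4–21 larvae.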

| Structure (SMILES) | LC3 puncta (log2) (NH4Cl: + NH4Cl, 10 µM) | LC3 puncta (log2) (NH4Cl: + NH4Cl, 50 µM) | LC3 puncta (log2) (NH4Cl: + NH4Cl, 100 µM) | LC3 puncta (log2) (NH4Cl: + NH4Cl, 250 µM) | LC3 puncta (log2) (NH4Cl: - NH4Cl, 10 µM) | LC3 puncta (log2) (NH4Cl: - NH4Cl, 50 µM) | LC3 puncta (log2) (NH4Cl: - NH4Cl, 100 µM) | LC3 puncta (log2) (NH4Cl: - NH4Cl, 250 µM) |
| --- | --- | --- | --- | --- | --- | --- | --- | --- |
| O=c1c(O)c(-c2ccc(O)c(O)c2)oc2cc(O)cc(O)c12 [Quercetin] | 0.773 | 0.126 | 0.298 | 0.298 | -0.173 | -0.502 | -1.19 | -0.815 |
| CC(C)CC(O)C(=O)O (stereo unspecified) [2-Hydroxyisocaproic acid] | 0.569 | 1.04 | 1.46 | 1.21 | -0.489 | 0.415 | 0.346 | 0.416 |
| CC1=C(/C=C/C(C)=C/C=C/C(C)=C/C=C/C=C(C)/C=C/C=C(C)/C=C/C2=C(C)CCCC2(C)C)C(C)(C)CCC1 [beta-Carotene] | 0.44 | 0.208 | 0.299 | 1.2 | 0.227 | -0.273 | 0.207 | 0.305 |
| N[C@@H](CCC(=O)O)C(=O)O [L-glutamic acid] | 0.755 | 0.239 | 0.876 | 0.997 | 0.144 | 0.165 | 0.702 | 0.322 |
| O=c1oc2c(O)c(O)cc3c(=O)oc4c(O)c(O)cc1c4c23 [Ellagic acid] | 0.705 | 0.347 | 0.0739 | 0.0325 | 0.154 | -0.476 | -0.223 | 0.00958 |
| CCCCCCCC/C=C\CCCCCCCCCCCCCC(=O)O [Nervonic acid] | 0.639 | 0.888 | 1.09 | 0.707 | -0.0528 | 0.0416 | 0.723 | 0.0463 |
| C[C@@H](O)CCO [(R)-1,3-Butylene Glycol] | 0.22 | -0.0174 | 0.179 | 0.0875 | 0.0281 | -0.261 | -0.294 | -0.184 |
| O=C(O)C[C@H](O)C(=O)O [(2S)-2-hydroxybutanedioic acid] | 0.631 | 0.508 | 0.375 |  | -0.158 | 0.038 | 0.417 | 0.262 |
| O=C(O)C=CC(=O)O [Butenedioic acid] | 0.693 | 1.1 | 1.29 | 1.14 | 0.588 | 0.758 | 0.837 | 0.447 |
